MIC data for six molecules are collected here from DBAASP.

Converted amounts (≈) assume the structure as drawn. “And” between values parts separate entries of the source, which are not always exact repeats. Identical values can stand only once.

For orientation: MIC means the smallest concentration in the dilution series that meets the test's criterion for growth inhibition. The low end stands for a more susceptible organism, the high end for a less susceptible organism.

Test systems include Escherichia coli MG1655; Vibrio cholerae; Staphylococcus aureus; Bacillus cereus; Sporothrix schenckii; Aspergillus fumigatus; Escherichia coli K-12.
What all share (assay): ≥ marks a high value that may be exact or a test limit, other limits are often not marked, values filed in µg/mL are converted to µM
In assay [1] the test system is Salmonella enterica subsp. enterica serovar Enteritidis BNCC 103134.
Assay [2] has as its system Staphylococcus aureus ATCC 25923.
Assay [3] relates to Bacillus subtilis ATCC 6633.
Assay [4] has as its system Escherichia coli ATCC 25922.
For assay [5], the system named is Enterococcus faecalis ATCC 29212.
Assay [6] relates to Bacillus subtilis MTCC 14416.
The subject of assay [7] is Staphylococcus aureus ATCC 43300.
Assay [8] relates to Pseudomonas aeruginosa ATCC 27853.
Assay [9] deals with Staphylococcus aureus MTCC 9542.
The subject of assay [10] is Bacillus megaterium NRRL B-4272.
Assay [11] deals with Escherichia coli ATCC 10536.
Assay [12] concerns Staphylococcus aureus ATCC 9144.
Assay [13] relates to Pseudomonas aeruginosa ATCC BAA-2111.
Assay [14] has as its system Proteus vulgaris NBRC 3045.
Assay [15] concerns Klebsiella pneumoniae NBRC 3512.
In assay [16] the test system is Salmonella enterica subsp. enterica NBRC 100797.
In assay [17] the test system is Escherichia coli DH5alpha.
The subject of assay [18] is Staphylococcus epidermidis.
Assay [19] concerns Staphylococcus aureus NBRC 13276.
Assay [20] deals with Pseudomonas aeruginosa NBRC 13275.
For assay [21], the system named is Escherichia coli NBRC 3972.
Assay [22] has as its system Escherichia coli ATCC 9637.
The subject of assay [23] is Trichophyton mentagrophytes.
The subject of assay [24] is Pseudomonas aeruginosa ATCC BAA-427.
The test system of assay [25] is Candida parapsilosis ATCC 22019.
The test system of assay [26] is Klebsiella pneumoniae ATCC 27736.
For assay [27], the system named is Cryptococcus neoformans var. grubii H99.
Assay [28] relates to Staphylococcus aureus JE2.
Assay [29] deals with Candida albicans ATCC 90028.
In assay [30] the test system is Klebsiella pneumoniae ATCC 700603.
The subject of assay [31] is Acinetobacter baumannii ATCC 19606.

As for `CC(C)[C@H](NC(=O)[C@H](C)NC(=O)[C@H](CCCN=C(N)N)NC(=O)[C@H](CC(=O)O)NC(=O)[C@@H](NC(=O)[C@H](C)N)C(C)C)C(=O)O` [AVDRAV], the MIC was at least 150 µM in assay [1], 100 µM (≈ 63 µg/mL) in [2], at least 150 µM in assay [3] and 100 µM (≈ 63 µg/mL) in assay [4].
In the case of `CC[C@H](C)[C@@H]1NC(=O)[C@H](CCCCN)NC(=O)[C@@H](NC(=O)[C@H](CC(C)C)NC(=O)[C@@H](NC(=O)[C@H](CCC(N)=O)NC(=O)[C@@H]2CCCN2C(=O)[C@H](CC(C)C)NC(=O)[C@H](Cc2ccccc2)NC(=O)[C@H](CC(N)=O)NC(=O)[C@H](C)NC(=O)[C@H](C)NC(=O)[C@H](CC(C)C)NC(=O)CNC(=O)[C@H](C)NC(=O)[C@@H](NC(=O)[C@@H](N)CCCN=C(N)N)[C@@H](C)CC)[C@@H](C)CC)CSSC[C@@H](C(N)=O)NC(=O)[C@H](CCCCN)NC(=O)[C@H](CCCN=C(N)N)NC(=O)[C@H](C)NC1=O` [RIAGLAANFLPQILCKIARKC], the minimum inhibitory concentration (MIC) in [5] is 21.7 µM (≈ 49.9 µg/mL); in [6], 21.7 µM (≈ 49.9 µg/mL); in assay [7], 10.9 µM (≈ 25 µg/mL); against Escherichia coli MG1655, 10.9 µM (≈ 25 µg/mL); in assay [8], over 43.5 µM; in assay [9], 10.9 µM (≈ 25 µg/mL). In addition, the minimum inhibitory concentration (MIC) against Vibrio cholerae is 5.44 µM (≈ 12.5 µg/mL).
Take `CC[C@H](C)[C@H](NC(=O)[C@H](Cc1ccccc1)NC(=O)[C@H](CCCCN)NC(=O)[C@H](CCCCN)NC(=O)[C@H](Cc1ccccc1)NC(=O)[C@H](CO)NC(=O)[C@H](Cc1cnc[nH]1)NC(=O)[C@H](CC(C)C)NC(=O)[C@H](C)NC(=O)[C@H](CCCCN)NC(=O)CNC(=O)CNC(=O)CN)C(=O)N[C@@H](CCCCN)C(=O)N[C@@H](C)C(=O)N[C@@H](Cc1ccccc1)C(=O)N[C@H](C(=O)NCC(=O)N[C@@H](CCC(=O)O)C(=O)N[C@H](C(=O)N[C@@H](CCSC)C(=O)N[C@@H](CC(N)=O)C(=O)N[C@@H](CO)C(N)=O)[C@@H](C)CC)C(C)C` [GGGKALHSFKKFIKAFVGEIMNS]: the MIC in [10] was 12 µM (≈ 29.6 µg/mL); in [3], 10 µM (≈ 24.7 µg/mL); in assay [11], 5 µM (≈ 12.3 µg/mL); in assay [12] it was at least 40 µM.
Consider `CC(C)C[C@H](NC(=O)[C@H](CCCCN)NC(=O)CNC(=O)[C@H](C)NC(=O)[C@H](CCCCN)NC(=O)[C@H](CCCCN)NC(=O)[C@H](CC(C)C)NC(=O)[C@H](CC(C)C)NC(=O)[C@H](CCCCN)NC(=O)CNC(=O)[C@H](C)NC(=O)[C@H](CCCCN)NC(=O)[C@H](CCCCN)NC(=O)[C@H](CC(C)C)NC(=O)[C@H](CC(C)C)NC(=O)[C@@H](N)CCCCN)C(=O)N[C@@H](CC(C)C)C(=O)N[C@@H](CCCCN)C(=O)N[C@@H](CCCCN)C(=O)N[C@@H](C)C(=O)NCC(N)=O` [KLLKKAGKLLKKAGKLLKKAG], for which the MIC in assay [13] is 1.39 µM (≈ 3.1 µg/mL); in assay [14] it was at least 100 µM; in assay [15] it was 0.716 µM (≈ 1.6 µg/mL); in assay [16], 1.6 µM (≈ 3.57 µg/mL); in [17] it was 3.12 µM and 3.1 µM; against Staphylococcus aureus, 12.5 µM (≈ 27.9 µg/mL). Further, the minimal inhibitory concentration (MIC) was 1.56 µM (≈ 3.48 µg/mL) in assay [18]; 5.59 µM (≈ 12.5 µg/mL) in assay [19]; 1.56 µM and 0.716 µM in [20]; 3.12 µM and 3.1 µM in assay [21].
Regarding `CC(C)C[C@H](NC(=O)[C@H](CC(C)C)NC(=O)[C@H](CCCN=C(N)N)NC(=O)[C@H](CCCN=C(N)N)NC(=O)[C@H](CC(C)C)NC(=O)[C@H](Cc1c[nH]c2ccccc12)NC(=O)[C@H](CCCN=C(N)N)NC(=O)[C@H](CC(C)C)NC(=O)[C@H](CC(C)C)NC(=O)[C@H](CCCN=C(N)N)NC(=O)[C@H](CCCN=C(N)N)NC(=O)[C@@H](N)CC(C)C)C(=O)N[C@@H](CCCN=C(N)N)C(=O)N[C@@H](CCCN=C(N)N)C(=O)O` [LRRLLRWLRRLLRR], the minimum inhibitory concentration (MIC) came out at 1.59 µM (≈ 3.15 µg/mL) against Bacillus cereus; 12.6 µM (≈ 25 µg/mL) in [22]; 0.789 µM (≈ 1.56 µg/mL) in assay [2]; 1.59 µM (≈ 3.15 µg/mL) against Sporothrix schenckii; 3.16 µM (≈ 6.25 µg/mL) in assay [23]; 3.16 µM (≈ 6.25 µg/mL) against Aspergillus fumigatus. In addition, the minimal inhibitory concentration (MIC) in assay [24] is 12.6 µM (≈ 25 µg/mL); in [25], 3.16 µM (≈ 6.25 µg/mL); in assay [26], 1.59 µM (≈ 3.15 µg/mL).
Take `CC[C@H](C)[C@H](NC(=O)[C@@H](NC(=O)[C@H](CO)NC(=O)[C@H](C)NC(=O)[C@@H](NC(=O)[C@H](CCCN=C(N)N)NC(=O)[C@H](CCCN=C(N)N)NC(=O)[C@@H](NC(=O)[C@@H](NC(=O)[C@H](CC(=O)O)NC(=O)[C@H](Cc1ccccc1)NC(=O)[C@H](CC(C)C)NC(=O)CN)C(C)C)[C@@H](C)CC)C(C)C)C(C)C)C(=O)NCC(=O)NCC(=O)N[C@@H](CC(C)C)C(=O)O` [GLFDVIRRVASVIGGL]: the MIC was 9.57 µM (≈ 16 µg/mL) in assay [27]; 9.57 µM (≈ 16 µg/mL) in assay [28]; 9.57 µM (≈ 16 µg/mL) in [29]; over 19.1 µM in assay [30]; 9.57 µM (≈ 16 µg/mL) in assay [7]; over 19.1 µM in assay [8]. Moreover, the MIC (in assay [31]; in the assay with Escherichia coli K-12; in assay [4]) was 19.1 µM (≈ 32 µg/mL) throughout.
